Experimental data from patent publication US11992497B2 (priority 2021, dated 2024).

Assays:
UGT1A4 = target: T1, UGT1A4 (Homo sapiens, UniProt P22310); test: UGT reaction phenotyping, recombinant Supersomes; type: in vitro ADME; settings: human, recombinant UGT1A4 Supersomes, pH 7.4, Test Conc. 1 μM
T1 construct: purchased BD Biosciences
T1 sequence (P22310 29-534): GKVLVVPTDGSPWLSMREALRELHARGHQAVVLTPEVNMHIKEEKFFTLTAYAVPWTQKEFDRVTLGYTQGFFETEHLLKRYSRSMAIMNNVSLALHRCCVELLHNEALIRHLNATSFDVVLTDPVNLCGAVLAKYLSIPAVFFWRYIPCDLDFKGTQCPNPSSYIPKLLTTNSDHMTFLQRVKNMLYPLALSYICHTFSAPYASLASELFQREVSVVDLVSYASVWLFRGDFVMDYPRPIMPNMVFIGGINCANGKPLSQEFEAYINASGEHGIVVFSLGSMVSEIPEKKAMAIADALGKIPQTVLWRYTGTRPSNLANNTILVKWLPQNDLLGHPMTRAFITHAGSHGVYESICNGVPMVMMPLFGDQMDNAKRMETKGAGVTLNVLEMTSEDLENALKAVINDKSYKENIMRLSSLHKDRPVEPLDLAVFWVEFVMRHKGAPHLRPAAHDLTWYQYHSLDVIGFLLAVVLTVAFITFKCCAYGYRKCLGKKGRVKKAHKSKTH
Text: Experimental Summary: UGT Reaction Phenotyping (7 Isoforms).

HCT116 [1] = test: GI50 by MTS assay; type: cell-based; settings: Homo sapiens, HCT-116
Method: (§1) For MTS assay, the compounds have been tested at 8 concentrations on 4 colon cancer cell lines for 48 hours. The compounds, concentrations and colon cancer cell line panel tested are the following: • CBG: 0 μM, 1.25 μM, 2.5 μM, 5 μM, 10 μM, 20 μM, 40 μM, and 80 μM. • Compound 1: 0 μM, 1.25 μM, 2.5 μM, 5 μM, 10 μM, 20 μM, 40 μM, and 80 μM. • Compound 2: 0 μM, 1.25 μM, 2.5 μM, 5 μM, 10 μM, 20 μM, 40 μM, and 80 μM. • Colon cancer cell line panel: SW620, HCT15, HT29, HCTl16
(§2) Four colon cancer cell lines of SW620, HCT15, HT29, and HCT116 were included in the colon cancer cell line panel.
(§3) CBG, compound 1 and compound 2 were dissolved in DMSO at a concentration of 10 mM and stored at −20° C.
(§4) Evaluation of DM compounds treatment-induced growth inhibition was performed to determine the GI50 of four colon cancer cell lines with MTS assay or clonogenic assay. Each experiment was repeated in triplicate. In GraphPad Prism, data were log-transformed and fit with a nonlinear curve to calculate the GI50.
(§5) MTS assay. cells were plated at 96 well plates at a density of 1,000 cells per well. After 24 hours, cells were treated with DM compounds at increasing concentrations or DMSO vehicle and incubated for 48 hours. 20 μl of MTS reagent (Promega) was then added and incubated for 2 hours. The absorbance was measured with a microplate reader at 490 nm. Each experiment was repeated in triplicate. In GraphPad Prism, data were log-transformed and fit with a nonlinear curve to calculate the GI50.

HCT15 [2] = test: GI50 by MTS assay; type: cell-based; settings: Homo sapiens, HCT-15
Method: as §1, §2, §3, §4, §5

HT29 [3] = test: GI50 by MTS assay; type: cell-based; settings: Homo sapiens, HT-29
Method: as §1, §2, §3, §4, §5

SW620 [4] = test: GI50 by MTS assay; type: cell-based; settings: Homo sapiens, SW-620
Method: as §1, §2, §3, §4, §5

HCT116 [5] = test: GI50 by clonogenic assay; type: cell-based; settings: Homo sapiens
Method: (§6) For colonogenic assay, the compounds were tested at 4 concentrations for 1 week or 2 weeks on 4 colon cancer cell lines. The compounds, concentrations, colon cancer cell line panel and end time point tested are the following: • CBG: 0 μM, 10 μM, 20 μM, 40 μM, and 80 μM. • Compound 1: 0 μM, 5 μM, 7.5 μM, 10 μM, and 20 μM. • Compound 2: 0 μM, 10 μM, 20 μM, 40 μM, and 80 μM. • Colon cancer cell line panel and end time point: SW620, HCT15, HCT116, 1 week; HT29, 2 weeks
as §2, §3, §4
(§7) Clonogenic assay. cells were plated at 6 well plates at a density of 2,500 cells per well. After 24 hours, cells were treated with DM compounds at increasing concentrations or DMSO vehicle and incubated for 1 week or 2 weeks. Cells were then fixed and stained with 1% crystal violet (Sigma-Aldrich) solution. Quantification was performed using ImageJ. Each experiment was repeated in triplicate. In GraphPad Prism, data were log-transformed and fit with a nonlinear curve to calculate the GI50.

HCT15 [6] = test: GI50 by clonogenic assay; type: cell-based; settings: Homo sapiens
Method: as §6, §2, §3, §4, §7

HT29 [7] = test: GI50 by clonogenic assay; type: cell-based; settings: Homo sapiens
Method: as §6, §2, §3, §4, §7

SW620 [8] = test: GI50 by clonogenic assay; type: cell-based; settings: Homo sapiens
Method: as §6, §2, §3, §4, §7

[9] = HCTl116 cells, 48 hours, read-out: GI50 (MTS assay)
[10] = HCT15 cells, 48 hours, read-out: GI50 (MTS assay)
[11] = MTS assay, HCT15, 48 hours, average of N1-N3, read-out: GI50 AVG
[12] = MTS assay, HCT15, 48 hours, replicate N1, read-out: GI50 N1
[13] = MTS assay, HCT15, 48 hours, replicate N2, read-out: GI50 N2
[14] = MTS assay, HCT15, 48 hours, replicate N3, read-out: GI50 N3
[15] = HT29 cells, 48 hours, read-out: GI50 (MTS assay)
[16] = MTS assay, HT29, 48 hours, replicate N1, read-out: GI50 N1
[17] = MTS assay, HT29, 48 hours, replicate N2, read-out: GI50 N2
[18] = MTS assay, HT29, 48 hours, replicate N3, read-out: GI50 N3
[19] = MTS assay, SW620, 48 hours, replicate N1, read-out: GI50 N1
[20] = MTS assay, SW620, 48 hours, replicate N2, read-out: GI50 N2
[21] = MTS assay, SW620, 48 hours, replicate N3, read-out: GI50 N3
[22] = SW620 cells, 48 hours, read-out: GI50 (MTS assay)
[23] = HCT-116, 168 h, HCT116 cells, 1 week, read-out: GI50 (clonogenic assay)
[24] = HCT-116, clonogenic assay, HCT116, average of N1-N3, read-out: GI50 AVG
[25] = HCT-116, clonogenic assay, HCT116, replicate N1, read-out: GI50 N1
[26] = HCT-116, clonogenic assay, HCT116, replicate N2, read-out: GI50 N2
[27] = HCT-116, clonogenic assay, HCT116, replicate N3, read-out: GI50 N3
[28] = HCT-15, 168 h, HCT15 cells, 1 week, read-out: GI50 (clonogenic assay)
[29] = HCT-15, clonogenic assay, HCT15, average of N1-N3, read-out: GI50 AVG
[30] = HCT-15, clonogenic assay, HCT15, replicate N1, read-out: GI50 N1
[31] = HCT-15, clonogenic assay, HCT15, replicate N2, read-out: GI50 N2
[32] = HCT-15, clonogenic assay, HCT15, replicate N3, read-out: GI50 N3
[33] = HT-29, 336 h, HT29 cells, 2 weeks, read-out: GI50 (clonogenic assay)
[34] = HT-29, clonogenic assay, HT29, average of N1-N3, read-out: GI50 AVG
[35] = HT-29, clonogenic assay, HT29, replicate N1, read-out: GI50 N1
[36] = HT-29, clonogenic assay, HT29, replicate N2, read-out: GI50 N2
[37] = HT-29, clonogenic assay, HT29, replicate N3, read-out: GI50 N3
[38] = SW-620, 168 h, SW620 cells, 1 week, read-out: GI50 (clonogenic assay)
[39] = SW-620, clonogenic assay, SW620, average of N1-N3, read-out: GI50 AVG
[40] = SW-620, clonogenic assay, SW620, replicate N1, read-out: GI50 N1
[41] = SW-620, clonogenic assay, SW620, replicate N2, read-out: GI50 N2
[42] = SW-620, clonogenic assay, SW620, replicate N3, read-out: GI50 N3

| Compound | GI50 (HCT116 [1]; [9]) | GI50 (HCT15 [2]; [10]) | GI50 (HCT15 [2]; [11]) | GI50 (HCT15 [2]; [12]) | GI50 (HCT15 [2]; [13]) | GI50 (HCT15 [2]; [14]) | GI50 (HT29 [3]; [15]) | GI50 (HT29 [3]; [16]) | GI50 (HT29 [3]; [17]) | GI50 (HT29 [3]; [18]) | GI50 (SW620 [4]; [19]) | GI50 (SW620 [4]; [20]) | GI50 (SW620 [4]; [21]) | GI50 (SW620 [4]; [22]) | GI50 (HCT116 [5]; [23]) | GI50 (HCT116 [5]; [24]) | GI50 (HCT116 [5]; [25]) | GI50 (HCT116 [5]; [26]) | GI50 (HCT116 [5]; [27]) | GI50 (HCT15 [6]; [28]) | other results |
| --- | --- | --- | --- | --- | --- | --- | --- | --- | --- | --- | --- | --- | --- | --- | --- | --- | --- | --- | --- | --- | --- |
| CCCCCc1cc(O)c(C/C=C(\C)CCC=C(C)C)c(OC)c1 [Compound 1, (E)-2-(3,7-dimethylocta-2,6-dien-1-yl)-3-methoxy-5-pentylphenol] | 10.3 ± 0.24 µM | 10 ± 0.52 µM | 10 µM | 10.1 µM | 9.46 µM | 10.5 µM | 10.2 ± 0.4 µM | 9.84 µM | 10.1 µM | 10.6 µM | 8.47 µM | 7.55 µM | 10.3 µM | 8.76 ± 1.38 µM | 5.51 ± 1.51 µM | 5.51 µM | 4.79 µM | 7.61 µM | 4.12 µM | 5.03 ± 2.16 µM | microsomal CLint at 1 µM (UGT1A4; read-out: Recombinant UGT CLINT Clearance): < 2.89 µL/min/mg; half-life at 1 µM (UGT1A4; read-out: Recombinant UGT Half Life T1/2): > 4 h; GI50 (HT29 [3]; MTS assay, HT29, 48 hours, average of N1-N3, read-out: GI50 AVG): 10.2 µM; GI50 (SW620 [4]; MTS assay, SW620, 48 hours, average of N1-N3, read-out: GI50 AVG): 8.76 µM; GI50 (HCT15 [6]; [29]): 5.03 µM; GI50 (HCT15 [6]; [30]): 3.64 µM; GI50 (HCT15 [6]; [31]): 7.52 µM; GI50 (HCT15 [6]; [32]): 3.94 µM; GI50 (HT29 [7]; [33]): 2.95 ± 1.41 µM; GI50 (HT29 [7]; [34]): 2.95 µM; GI50 (HT29 [7]; [35]): 1.33 µM; GI50 (HT29 [7]; [36]): 3.87 µM; GI50 (HT29 [7]; [37]): 3.66 µM; GI50 (SW620 [8]; [38]): 5.35 ± 1.11 µM; GI50 (SW620 [8]; [39]): 5.35 µM; GI50 (SW620 [8]; [40]): 5.76 µM; GI50 (SW620 [8]; [41]): 4.09 µM; GI50 (SW620 [8]; [42]): 6.2 µM |
| CCCCCc1cc(OC)c(C/C=C(\C)CCC=C(C)C)c(OC)c1 [Compound 2, (E)-2-(3,7-dimethylocta-2,6-dien-1-yl)-1,3-dimethoxy-5-pentylbenzene] | > 80 µM | > 80 µM | 35.9 µM | > 80 µM | > 80 µM | > 80 µM | > 80 µM | > 80 µM | > 80 µM | > 80 µM | > 80 µM | > 80 µM | > 80 µM | > 80 µM | 43.1 ± 7.68 µM | 43.1 µM | 53.4 µM | 40.6 µM | 35.1 µM | 35.9 ± 8.95 µM | GI50 (HCT116 [1]; MTS assay, HCT116, 48 hours, replicate N1, read-out: GI50 N1): > 80 µM; GI50 (HCT116 [1]; MTS assay, HCT116, 48 hours, replicate N2, read-out: GI50 N2): > 80 µM; GI50 (HCT116 [1]; MTS assay, HCT116, 48 hours, replicate N3, read-out: GI50 N3): > 80 µM; GI50 (HCT15 [6]; [29]): 35.9 µM; GI50 (HCT15 [6]; [30]): 46.2 µM; GI50 (HCT15 [6]; [31]): 30.5 µM; GI50 (HCT15 [6]; [32]): 31 µM; GI50 (HT29 [7]; [33]): 34.5 ± 14.4 µM; GI50 (HT29 [7]; [34]): 34.5 µM; GI50 (HT29 [7]; [35]): 51.1 µM; GI50 (HT29 [7]; [36]): 25 µM; GI50 (HT29 [7]; [37]): 27.3 µM; GI50 (SW620 [8]; [38]): 41.7 ± 5.9 µM; GI50 (SW620 [8]; [39]): 41.7 µM; GI50 (SW620 [8]; [40]): 47.8 µM; GI50 (SW620 [8]; [41]): 41.2 µM; GI50 (SW620 [8]; [42]): 36 µM |
